Assay results taken from patent US9895363B2, “Methods for modulating function of proliferating cell nuclear antigen (PCNA) and treating cancer with PCNA-targeting compounds” (University of Cincinnati, priority 2010, dated 2018).
Where two headings read alike, the source gives them in different places.

Experiments:
[1] = test system: LNCaP cells; assay: DNA damage, apoptosis and cell cycle proteins by immunoblot, LNCaP; format: cell-based, Human
Method: Fluorescence-activated cell sorting (FACS) analysis was performed on both PC-3 cells and LNCaP cells using PCNA-I1. Specifically, cells were treated with 1 or 10 μM PCNA-I1 and sampled for the flow cytometry analysis at 24 H, 48 H, and 72 H. Expression of DNA damage and apoptosis-related proteins in PC-3 cells and LNCaP cells was also determined. Cisplatin, a well-known drug that induces DNA damage and apoptosis, was included in the experiment. LNCaP cells were treated for 6 H, 12 H, or 18 H with 10 μM PCNA-I1, 10 μM cisplatin, or both.
To further explore the differential effects of PCNA-I1 on LNCaP and PC-3 cells, the effects of PCNA-I1 and cisplatin on expression of cell cycle- and apoptosis-related proteins in the two cell lines were compared. LNCaP cells and PC-3 cells were treated with 1 μM PCNA-I1 and/or 5 μM cisplatin for 12 H, 18 H, or 24 H and cell lysates were sampled for immunoblotting.

[2] = test system: Tumor Cells; assay: Growth inhibition, mean over tumor cell lines; format: cell-based; conditions: mean over all tumor cell lines; read-out: IC50 Values, Tumor Cells, Mean ± SD
Method: (§1) Growth inhibitory effects of PCNA-I1 and PCNA-I2 were assessed in human cancer cell lines, mouse cancer cell lines, immortalized mouse cell lines, and human primary cell lines. Specifically, growth inhibitory effects of PCNA-I1 and PCNA-I2 were assessed using MTT staining in the following cells lines: 1) human cancer cell lines including LNCaP (androgen receptor […]), 22Rv1, DU-145, LAPC-4, and PC-3 (androgen receptor […]) prostate cancer cells; MCF-7 and T47D breast cancer cells; A375 and MDA-MB435 melanoma cells; 2) mouse cancer cell lines including TRAMP-C2RE3 prostate cancer cells, B16 and K1735 melanoma cells, UV2237 fibrosarcoma cells, and CT-26 colon cancer cells; 3) immortalized mouse lung cell lines and mouse endothelial cell lines; and 4) primary human cell lines including umbilical endothelial cells (HUVEC, PromoCell, Heidelberg, Germany), primary bone marrow mesenchymal stem cells (HuMSC, PromoCell), primary human mammary epithelial cells (HuBrEC, Lonza, Walkersville, Md.), primary human prostate epithelial cells (HuPrEC, Lonza), and primary mouse spleen lymphocytes (isolated in this laboratory), and primary mouse bone marrow stromal cells (isolated in this laboratory). […]
(§2) IC50 values were derived from growth inhibition curves. […] Inhibition of cell growth was calculated using the formula: growth inhibition (%)=(1−A570 of treated/A570 of control)×100. […]

[3] = test system: LNCaP prostate cancer cells; assay: Growth inhibition by MTT staining, LNCaP; format: cell-based, Human; conditions: 96 h, Table II, Human tumor cells, treated four days, mean of five to seven experiments, read-out: IC50 Values, LNCaP
Method: Growth inhibitory effects of PCNA-I1 and PCNA-I2 were assessed in human cancer cell lines, mouse cancer cell lines, immortalized mouse cell lines, and human primary cell lines. Specifically, growth inhibitory effects of PCNA-I1 and PCNA-I2 were assessed using MTT staining in the following cells lines: 1) human cancer cell lines including LNCaP (androgen receptor […]), 22Rv1, DU-145, LAPC-4, and PC-3 (androgen receptor […]) prostate cancer cells; MCF-7 and T47D breast cancer cells; A375 and MDA-MB435 melanoma cells; 2) mouse cancer cell lines including TRAMP-C2RE3 prostate cancer cells, B16 and K1735 melanoma cells, UV2237 fibrosarcoma cells, and CT-26 colon cancer cells; 3) immortalized mouse lung cell lines and mouse endothelial cell lines; and 4) primary human cell lines including umbilical endothelial cells (HUVEC, PromoCell, Heidelberg, Germany), primary bone marrow mesenchymal stem cells (HuMSC, PromoCell), primary human mammary epithelial cells (HuBrEC, Lonza, Walkersville, Md.), primary human prostate epithelial cells (HuPrEC, Lonza), and primary mouse spleen lymphocytes (isolated in this laboratory), and primary mouse bone marrow stromal cells (isolated in this laboratory). PCNA-I1 and PCNA-I2 were either provided by the University of Cincinnati Drug Discovery Center (UC-DDC, Cincinnati, Ohio) or were purchased from Chembridge Co (San Diego, Calif.), ChemDiv (San Diego, Calif.), and/or Sigma-Aldrich (St Louis, Mo.).
Growth inhibitory effects of the compounds were assessed by MTT staining as described previously by Dong et al. in In Vitro Model for Intrinsic Drug Resistance: Effects of Protein Kinase C Activators on the Chemosensitivity of Cultured Human Colon Cancer Cells; Mol. Pharmacol. 1991; 39: 563-9. Briefly, cells were cultured and treated in their respective media. Cells were plated into 96-well plates at 1000 to 5000 cells/well. After an overnight incubation, the cells were treated for four days with various concentrations (up to 10 μM) of PCNA-I1 or PCNA-I2. The live cells were stained with MTT and cells in exponential growth phase were harvested by a one to three minute treatment with a 0.25% trypsin-0.02% EDTA solution. Flasks were tapped to detach the cells, RPMI 1640-10% FBS was added, and the cell suspensions were gently agitated to produce single-cell suspensions. The cell suspensions were washed and resuspended in medium with supplements specified for different cells. Only suspensions of single cells with a viability exceeding 95% (ascertained by trypan blue exclusion) were used.
IC50 values were derived from growth inhibition curves. Data for tumor cells are a mean of five to seven experiments. Data for primary cells are a mean of three experiments. […] Inhibition of cell growth was calculated using the formula: growth inhibition (%)=(1−A570 of treated/A570 of control)×100. IC50 (the concentration that inhibited cell growth by 50%) values were also determined. For evaluation of lymphocyte growth in suspension, an Alamar blue assay was performed, wherein freshly prepared mouse spleen lymphocytes were stimulated for 72 H with 2 ug/mL concanavalin A (Sigma Chemicals, St. Louis, […].). During the last 24 H, 20 μl/well of Alamar blue (Invitrogen, Carlsbad, Calif.) was added. The fluorescence intensity was measured at 530/580 (excitation/emission) in the FLUOstar Omega microplate reader (BMG LABTECH, Cary, N.C.).
Growth inhibitory effects of PCNA-I3, PCNA-I4, PCNA-I6, PCNA-I7, PCNA-I8, PCNA-I9 and PCNA-I10 were assessed in human prostate cancer cell lines. Specifically, growth inhibitory effects of PCNA-I3, PCNA-I4, PCNA-I6, PCNA-I7, PCNA-I8, PCNA-I9 and PCNA-I10 were assessed using MTT staining in LNCaP and PC-3 cells. […]

[4] = test system: CT-26 colon cancer cells; assay: Growth inhibition by MTT staining, CT-26; format: cell-based; conditions: CT26; Mouse tumor cells; cell line not given; read-out: IC50 Values, cell line cell blank (first row below UV2237)
Method: as §1, §2

[5] = test system: PC-3 cells; assay: MTT assay, PCNA-I1 and cisplatin alone or combined, PC-3; format: cell-based, Human; conditions: Homo sapiens
Method: LNCaP or PC-3 cells were treated with a variety of concentrations of PCNA-I1 (0.1-10 μM) or cisplatin (0.1-10 μM) alone, or with a variety of concentrations of a combination of PCNA-I1 (0.1-10 μM) and cisplatin (0.1-10 μM) for four days. MTT assays were performed and IC50 values for PCNA-I1 and cisplatin were determined.

Cc1ccsc1C(=O)N/N=C/c1ccc2ccccc2c1O [PCNA-I1] was tested, and the “Expression of retinoblastoma (Rb) and cyclin D1” value ([1]; LNCaP and PC-3, 1 μM PCNA-I1 and/or 5 μM cisplatin, 12-24 H) was “moderately downregulated expression of cell cycle-regulating proteins”, the “Phosphorylation of p53, single agent” value ([1]; LNCaP, 10 μM) was “induced” and the “Expression of p21 protein” value ([1]; LNCaP, 10 μM PCNA-I1 and/or 10 μM cisplatin) was “enhanced expression of p21 protein at 6 H and 12 H”. For the same compound, the “PARP cleavage, single agent” value ([1]; LNCaP, 10 μM alone) was “induced PARP cleavage”, the “DNA double strand break (γH2AX induction), single agent” value ([1]; LNCaP, 10 μM alone, 6-18 H, FIG. 17(A)) was “induced moderate double strand break (DSB) of DNA” and the IC50 [2] was 190 ± 90 nM. For the same compound, the IC50 [3] was 140 nM, the IC50 [4] was 130 nM and the IC50 ([5]; PC-3, 96 h, MTT, four days, single agent, read-out: IC50 doses for cell growth inhibition, PC-3, agent alone) was 240 nM. It also gave an IC50 ([5]; PC-3, combined with 0.3 μM cisplatin, read-out: PCNA-I1 concentration giving 50% inhibition in combination, PC-3) of 80 nM.
